IC50 data for 27 compounds are collected here from patent US20260297070A1, “CYCLIC [COMPOUND LEFT OUT] WRN INHIBITORS” (Nimbus Wadjet, Inc., priority 2023, published 2026).

The structures appear in SMILES notation. A value given as a limit tells only on which side of the number the result lay.

T1 sequence (Q14191 with tags, fused parts or gaps L1074F limits assumed): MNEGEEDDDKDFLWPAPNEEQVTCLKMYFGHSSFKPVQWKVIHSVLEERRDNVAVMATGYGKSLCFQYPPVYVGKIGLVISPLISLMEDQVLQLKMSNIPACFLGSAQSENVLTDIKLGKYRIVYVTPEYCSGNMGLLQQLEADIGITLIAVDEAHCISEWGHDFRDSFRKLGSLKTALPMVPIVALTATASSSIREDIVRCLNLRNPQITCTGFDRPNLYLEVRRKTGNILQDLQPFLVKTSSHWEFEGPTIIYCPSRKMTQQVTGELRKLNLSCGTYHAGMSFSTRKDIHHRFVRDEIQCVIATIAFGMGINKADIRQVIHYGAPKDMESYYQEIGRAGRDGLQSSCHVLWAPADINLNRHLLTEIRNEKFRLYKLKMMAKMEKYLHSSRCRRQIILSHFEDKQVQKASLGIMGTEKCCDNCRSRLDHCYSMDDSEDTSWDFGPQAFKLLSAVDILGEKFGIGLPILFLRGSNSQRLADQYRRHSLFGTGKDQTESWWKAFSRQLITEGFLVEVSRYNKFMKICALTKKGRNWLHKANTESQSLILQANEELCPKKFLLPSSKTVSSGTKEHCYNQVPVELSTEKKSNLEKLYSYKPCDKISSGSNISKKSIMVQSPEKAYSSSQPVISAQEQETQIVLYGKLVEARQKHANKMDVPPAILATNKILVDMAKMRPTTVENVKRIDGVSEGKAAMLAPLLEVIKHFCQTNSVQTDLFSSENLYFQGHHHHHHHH

This assay concerns the target T1, human Werner helicase (WRN-BV08, Uniprot Q14191, amino acids 517-1235 with L1074F point mutation) (Homo sapiens, UniProt Q14191, L1074F).
T1 construct: Uniprot Q14191, amino acids 517-1235 with L1074F point mutation; TEV-cleavable 8×His (C, cleaved yes); made in house; host or cells: Sf9 insect cells (baculovirus)
Nature of the assay: WRN (BV08) ADP-Glo Assay. Type of assay: biochemical. The following applies: 0.15 nM WRN, 5 μM ATP, 0.1 nM DNA duplex, 15 min preincubation, 60 min at 25° C., pH 7.5, 1% DMSO; read-out: ADP-Glo_hWRN_IC50. The method in brief: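 0.15 nM WRN (aa 517-1235, L1074F, Sf9-expressed, tag cleaved) preincubated 15 min at 25 °C with compound, then 5 μM ATP and 0.1 nM DNA duplex added for 60 min. Buffer: 20 mM Bicine pH 7.5, 1 mM MgCl2, 10 mM KCl, 1 mM TCEP; 1% DMSO. ADP-Glo luminescence; IC50 by 4-parameter fit.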
In general terms: In ADP-Glo the light output rises with the ADP produced.
`COc1cc(CN(C(=O)C(OC2COC2)c2ccc(-c3ccc(F)c(F)c3)cc2F)[C@@H]2C=CS(=O)(=O)C2)ccn1` (single isomer, unassigned) [I-741, (2R*)-N-[(3R)-1,1-dioxo-2,3-dihydro-1lambda6-thiophen-3-yl]-N-[(2-methoxypyridin-4-yl)methyl]-2-(oxetan-3-yloxy)-2-{3,3′,4′-trifluoro-[1,1′-biphenyl]-4-yl}acetamide]: the IC50 is greater than 50 µM.
Next, `COc1cc(CN(C(=O)C(OCc2cnn(C)c2)c2ccc(-c3ccc(F)c(F)c3)cc2F)[C@@H]2C=CS(=O)(=O)C2)ccn1` (single isomer, unassigned) [I-742, (2R*)-N-[(3R)-1,1-dioxo-2,3-dihydro-1lambda6-thiophen-3-yl]-N-[(2-methoxypyridin-4-yl)methyl]-2-[(1-methyl-1H-pyrazol-4-yl)methoxy]-2-{3,3′,4′-trifluoro-[1,1′-biphenyl]-4-yl}acetamide]: 0.5 to 5 µM; `COc1cc(CN(C(=O)C(OCc2cnn(C)c2)c2ccc(-c3ccc(F)c(F)c3)cc2F)[C@@H]2C=CS(=O)(=O)C2)ccn1` (single isomer, unassigned) [I-743, (2R*)-N-[(3R)-1,1-dioxo-2,3-dihydro-1lambda6-thiophen-3-yl]-N-[(2-methoxypyridin-4-yl)methyl]-2-[(1-methyl-1H-pyrazol-4-yl)methoxy]-2-{3,3′,4′-trifluoro-[1,1′-biphenyl]-4-yl}acetamide]: greater than 50 µM.
Under `COC(C(=O)N(Cc1nc(C(C)(C)O)cs1)C1C=CS(=O)(=O)C1)c1ccc(-c2ccc(F)c(F)c2)cc1F` (single isomer, unassigned) [I-746, (2R*)-N-[(3R**)-1,1-dioxo-2,3-dihydro-1lambda6-thiophen-3-yl]-N-{[4-(2-hydroxypropan-2-yl)-1,3-thiazol-2-yl]methyl}-2-methoxy-2-{3,3′,4′-trifluoro-[1,1′-biphenyl]-4-yl}acetamide] stands less than 0.5 µM; under `COC(C(=O)N(Cc1nc(C(C)(C)O)cs1)C1C=CS(=O)(=O)C1)c1ccc(-c2ccc(F)c(F)c2)cc1F` (single isomer, unassigned) [I-747, (2R*)-N-[(3R**)-1,1-dioxo-2,3-dihydro-1lambda6-thiophen-3-yl]-N-{[4-(2-hydroxypropan-2-yl)-1,3-thiazol-2-yl]methyl}-2-methoxy-2-{3,3′,4′-trifluoro-[1,1′-biphenyl]-4-yl}acetamide], 5 to 10 µM.
Under `COc1cc(CN(C(=O)C(c2ccc(-c3ccc(F)c(F)c3)cc2F)n2nccc2C)[C@@H]2C=CS(=O)(=O)C2)ccn1` (single isomer, unassigned) [I-749, (2R*)-N-[(3R)-1,1-dioxo-2,3-dihydro-1lambda6-thiophen-3-yl]-N-[(2-methoxypyridin-4-yl)methyl]-2-(5-methyl-1H-pyrazol-1-yl)-2-{3,3′,4′-trifluoro-[1,1′-biphenyl]-4-yl}acetamide] stands 0.5 to 5 µM; under `COc1cc(CN(C(=O)C(c2ccc(-c3ccc(F)c(F)c3)cc2F)n2ccc(C)n2)[C@@H]2C=CS(=O)(=O)C2)ccn1` (single isomer, unassigned) [I-750, (2R*)-N-[(3R)-1,1-dioxo-2,3-dihydro-1lambda6-thiophen-3-yl]-N-[(2-methoxypyridin-4-yl)methyl]-2-(3-methyl-1H-pyrazol-1-yl)-2-{3,3′,4′-trifluoro-[1,1′-biphenyl]-4-yl}acetamide], less than 0.5 µM; under `CC(C)(O)c1cc(CN(C(=O)Cn2cc(-c3cc(F)c(F)cc3F)cn2)C2C=CS(=O)(=O)C2)ccn1` (single isomer, unassigned) [I-763], less than 0.5 µM.
Consider `COCCOC(C(=O)N(Cc1ccnc(C(C)(C)O)c1)[C@@H]1C=CS(=O)(=O)C1)c1ccc(S(F)(F)(F)(F)F)cc1` (single isomer, unassigned) [I-765], for which the IC50 was in the range of 0.5 to 5 µM.
For the compound `CC(C)(O)c1cc(CN(C(=O)Cn2ncc(-c3ccc(F)c(F)c3)cc2=O)C2C=CS(=O)(=O)C2)ccn1` (single isomer, unassigned) [I-767], the IC50 is less than 0.5 µM.
As to `CC(C(=O)N(Cc1ccnc(C(C)(C)O)c1)[C@@H]1C=CS(=O)(=O)C1)n1ccc(-c2ccc(F)c(F)c2)cc1=O` (single isomer, unassigned) [I-769], the IC50 was less than 0.5 µM.
Next, `CC(C)(O)c1cc(CN(C(=O)Cn2ncc(-c3cc(F)c(F)c(F)c3)c2Cl)C2C=CS(=O)(=O)C2)ccn1` (single isomer, unassigned) [I-773]: less than 0.5 µM.
Next, `CC(C(=O)N(Cc1ccnc(C(C)(C)O)c1)C1C=CS(=O)(=O)C1)n1cc(-c2ccc(C(F)(F)F)cc2)cn1` (single isomer, unassigned) [I-774, (2R*)-N-[(3R**)-1,1-dioxo-2,3-dihydro-1lambda6-thiophen-3-yl]-N-{[2-(2-hydroxypropan-2-yl)pyridin-4-yl]methyl}-2-{4-[4-(trifluoromethyl)phenyl]-1H-pyrazol-1-yl}propanamide]: 10 to 50 µM.
For `CC(C(=O)N(Cc1ccnc(C(C)(C)O)c1)C1C=CS(=O)(=O)C1)n1cc(-c2ccc(C(F)(F)F)cc2)cn1` (single isomer, unassigned) [I-775, (2R*)-N-[(3R**)-1,1-dioxo-2,3-dihydro-1lambda6-thiophen-3-yl]-N-{[2-(2-hydroxypropan-2-yl)pyridin-4-yl]methyl}-2-{4-[4-(trifluoromethyl)phenyl]-1H-pyrazol-1-yl}propanamide], the IC50 fell in the range of 0.5 to 5 µM.
Under `CC(C(=O)N(Cc1ccnc(C(C)(C)O)c1)C1C=CS(=O)(=O)C1)n1cc(-c2cc(F)c(F)c(F)c2)cn1` (single isomer, unassigned) [I-776, (2R*)-N-[(3R**)-1,1-dioxo-2,3-dihydro-1lambda6-thiophen-3-yl]-N-{[2-(2-hydroxypropan-2-yl)pyridin-4-yl]methyl}-2-[4-(3,4,5-trifluorophenyl)-1H-pyrazol-1-yl]propanamide] stands less than 0.5 µM.
In the case of `CC(C(=O)N(Cc1ccnc(C(C)(C)O)c1)C1C=CS(=O)(=O)C1)n1cc(-c2cc(F)c(F)c(F)c2)cn1` (single isomer, unassigned) [I-777, (2R*)-N-[(3R**)-1,1-dioxo-2,3-dihydro-1lambda6-thiophen-3-yl]-N-{[2-(2-hydroxypropan-2-yl)pyridin-4-yl]methyl}-2-[4-(3,4,5-trifluorophenyl)-1H-pyrazol-1-yl]propanamide], the IC50 is less than 0.5 µM.
Turning to `CC(C)(O)c1cc(CN(C(=O)Cc2cc(-c3ccc(F)c(F)c3)n[nH]2)C2C=CS(=O)(=O)C2)ccn1` (single isomer, unassigned) [I-781], the IC50 lay in the range of 10 to 50 µM.
Consider `CC(C(=O)N(Cc1ccnc(C(C)(C)O)c1)[C@@H]1C=CS(=O)(=O)C1)n1cc(-c2ccc(C(F)(F)F)cc2)cn1` (single isomer, unassigned) [I-788], for which the IC50 was in the range of 5 to 10 µM.
Next, `CC(C(=O)N(Cc1ccnc(C(C)(C)O)c1)[C@@H]1C=CS(=O)(=O)C1)n1cc(-c2cc(F)c(F)c(F)c2)cn1` (single isomer, unassigned) [I-789]: less than 0.5 µM; `CC(C)(O)c1cc(CN(C(=O)C(OCCC(F)(F)F)c2ccc(-c3ccc(F)c(F)c3)cc2F)[C@@H]2C=CS(=O)(=O)C2)ccn1` (single isomer, unassigned) [I-790]: 0.5 to 5 µM; `CC(C)(O)c1cc(CN(C(=O)Cc2ncc(-c3cc(F)c(F)c(F)c3)s2)C2C=CS(=O)(=O)C2)ccn1` (single isomer, unassigned) [I-794]: 0.5 to 5 µM.
For `CC(C)(O)c1csc(CN(C(=O)Cn2cc(-c3cc(F)c(F)c(F)c3)cn2)C2C=CS(=O)(=O)C2)n1` (single isomer, unassigned) [I-798], the IC50 is less than 0.5 µM.
With `CC(C)(O)c1csc(CN(C(=O)Cn2cc(-c3cc(F)c(F)c(F)c3)cn2)C2C=CS(=O)(=O)C2)n1` (single isomer, unassigned) [I-799], the IC50 lay in the range of 0.5 to 5 µM.
In the case of `CC(C)(O)c1cc(CN(C(=O)C(c2ccc(-c3ccc(F)c(F)c3)cc2F)n2ccnn2)[C@@H]2C=CS(=O)(=O)C2)ccn1` (single isomer, unassigned) [I-800], the IC50 was less than 0.5 µM.
Under `CC(C)(O)c1cc(CN(C(=O)C(c2ccc(-c3ccc(F)c(F)c3)cc2F)n2ccnn2)C2C=CS(=O)(=O)C2)ccn1` (single isomer, unassigned) [I-801, (2R*)-N-[(3R**)-1,1-dioxo-2,3-dihydro-1lambda6-thiophen-3-yl]-N-{[2-(2-hydroxypropan-2-yl)pyridin-4-yl]methyl}-2-(1H-1,2,3-triazol-1-yl)-2-{3,3′,4′-trifluoro-[1,1′-biphenyl]-4-yl}acetamide] stands less than 0.5 µM; under `CC(C)(O)c1cc(CN(C(=O)C(c2ccc(-c3ccc(F)c(F)c3)cc2F)n2ccnn2)C2C=CS(=O)(=O)C2)ccn1` (single isomer, unassigned) [I-802, (2R*)-N-[(3R**)-1,1-dioxo-2,3-dihydro-1lambda6-thiophen-3-yl]-N-{[2-(2-hydroxypropan-2-yl)pyridin-4-yl]methyl}-2-(1H-1,2,3-triazol-1-yl)-2-{3,3′,4′-trifluoro-[1,1′-biphenyl]-4-yl}acetamide], 0.5 to 5 µM; under `COc1cc(CN(C(=O)C(O/C=C/S(C)(=O)=O)c2ccc(-c3ccc(F)c(F)c3)cc2F)[C@@H]2C=CS(=O)(=O)C2)ccn1` (single isomer, unassigned) [I-803, (2R*)-N-[(3R)-1,1-dioxo-2,3-dihydro-1lambda6-thiophen-3-yl]-2-{[(1E)-2-methanesulfonylethenyl]oxy}-N-[(2-methoxypyridin-4-yl)methyl]-2-{3,3′,4′-trifluoro-[1,1′-biphenyl]-4-yl}acetamide], greater than 50 µM.
